Laboratory results reported in US20260364184A1, “COMPOUND BASED ON OXOISOINDOLINYL-SUBSTITUTED TETRAHYDROPYRIMIDINE-DIONE AND USE THEREOF” (GLUETACS THERAPEUTICS (SHANGHAI) CO., LTD., priority 2023, published 2026).

Experiments:
Type in all cases: cell-based
[1] = test system: Human Multiple myeloma cell line (MM.1S); experiment: Inhibition of MM.1S cell proliferation (CellTiter luminescent viability); details: Homo sapiens, MM1.S, Table IA5, IRAK4 inhibitor-based, 96 hours; for inhibition at 0.01 µM: 10 nM, read-out: Inhibition Rate at 10 nM (%); for inhibition at 0.5 µM: 500 nM, read-out: Inhibition Rate at 500 nM (%)
Method in brief: (§1)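 Cells are seeded in 96-well plates, cultured at 37 °C, 5% CO2, and treated next day with 5-fold serial compound dilutions (stock series from 2000 μM; 0.5 μL into 100 μL medium). Viability is read by CellTiter-Meiluncell luminescence after the set exposure, and IC50 is taken from growth-inhibition curves.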

[2] = test system: Human myeloid monocytic leukemia cell line (MV-4-11); experiment: Inhibition of MV-4-11 cell proliferation (CellTiter luminescent viability); details: Homo sapiens, MV4-11, Table IA3, IRAK4 inhibitor-based, 96 hours; for inhibition at 0.01 µM: MV-4-11, 10 nM, read-out: Inhibition Rate at 10 nM (%); for inhibition at 0.5 µM: MV-4-11, 500 nM, read-out: Inhibition Rate at 500 nM (%)
Method in brief: as §1

[3] = Inhibition of RPMI-8226 cell proliferation (CellTiter luminescent viability); details: Homo sapiens; Table IA4, IRAK4 inhibitor-based; RPMI-8226, 10 nM, 96 hours; read-out: Inhibition Rate at 10 nM (%)
Protocol: (§2) The tumor cells used herein were cultured in a cell culture medium listed in table 3 at 37 °C in an incubator with 5% CO2. Prior to experimentation, all cell lines used were correctly identified by STR profiling, and tested negative for mycoplasma contamination using a mycoplasma detection kit through routine screenings.
(§3) The IC50 values of the compounds of the present disclosure (including the compounds in Table 1, Table 2, and Examples 1-468) were determined using the CellTiter-Meiluncell Luminescent Cell Viability Assay Kit from Dalian Meilun Biotech Co., Ltd. The detailed procedure is as follows: Tumor cells were seeded in 96-well cell culture plates at the densities specified in Table 4. On the following day, the test compounds of the present disclosure were subjected to serial dilution. The dilution can be performed according to one of the following two methods: • (1) The first dilution method: The test compounds of the present disclosure (including the compounds in Table 1, Table 2, and Examples 1-468) were subjected to 5-fold serial dilutions starting from a highest concentration of 2000 μM, resulting in a total of 9 concentrations from high to low (2000, 400, 80, 16, 3.2, 0.64, 0.128, 0.0256, 0.00512 μM). Subsequently, 0.5 μL of the test compound dilution was transferred into the 96-well plate containing the cells, with each well containing 100 μL of cell culture medium. […] Into the 96-well plate, the diluted test compounds and corresponding detection reagents were added, resulting in final test compound concentrations of 500 nM and 10 nM, respectively. The experimental procedure is described below using the diluted 2 μM test compound as an example.
(§4) 0.5 μL of the aforementioned diluted compound of the present disclosure (including the compounds in Table 1, Table 2, and Examples 1-468) was added to the seeded cells in 100 μL of medium, yielding a final test compound concentration of 10 nM. After the cells were treated with the compounds of the present disclosure for a specified period, the cell viability assay reagent was added to the culture medium according to the kit's instructions to determine cell viability. […] All controls were treated using the same procedure as the compounds of the present disclosure. The growth inhibition curves for the compounds of the present disclosure were plotted using Prism GraphPad software, and the IC50 values were calculated therefrom.

[4] = test system: Human B-Cell Lymphoma Cells (RPMI-8226); experiment: as above; details: Table IA4, IRAK4 inhibitor-based, RPMI-8226, 500 nM, 96 hours, read-out: Inhibition Rate at 500 nM (%)
Protocol: as §2, §3, §4

[5] = test system: Human Acute T Lymphoblastic Leukemia Cells (Molt-4); experiment: Inhibition of Molt-4 cell proliferation (CellTiter luminescent viability); details: Homo sapiens, MOLT-4, 96 h, Table IA2, IRAK4 inhibitor-based, 96 hours; for inhibition at 0.01 µM: Molt-4, 10 nM, read-out: Inhibition Rate at 10 nM (%); for inhibition at 0.5 µM: Molt-4, 500 nM, read-out: Inhibition Rate at 500 nM (%)
Protocol: as §2, §3, §4

IRAK4 = molecular target: T1, IRAK4 (Homo sapiens, UniProt Q9NWZ3); experiment: Western blot degradation of IRAK4; details: hPBMC Cell; 24 hours
T1 construct: expression of target proteins in cells; endogenous in cells
T1 sequence (Q9NWZ3 1-460): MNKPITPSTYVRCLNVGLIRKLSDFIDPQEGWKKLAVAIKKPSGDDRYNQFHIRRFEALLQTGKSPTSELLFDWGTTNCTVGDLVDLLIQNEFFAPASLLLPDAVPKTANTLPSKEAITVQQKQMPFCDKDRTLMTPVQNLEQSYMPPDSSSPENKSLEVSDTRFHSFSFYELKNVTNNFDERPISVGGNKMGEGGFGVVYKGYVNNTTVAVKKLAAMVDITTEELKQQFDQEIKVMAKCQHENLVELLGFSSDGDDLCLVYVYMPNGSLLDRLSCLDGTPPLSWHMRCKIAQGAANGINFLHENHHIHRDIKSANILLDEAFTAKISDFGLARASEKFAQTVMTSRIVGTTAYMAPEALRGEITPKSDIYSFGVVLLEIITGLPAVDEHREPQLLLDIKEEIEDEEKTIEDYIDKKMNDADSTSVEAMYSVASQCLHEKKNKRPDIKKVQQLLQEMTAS
Method in brief: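 Immunoblot of drug-treated versus DMSO-treated cell lysates, with densitometric quantification. Values: DC50 (50% band loss, fitted) and loading-control-normalised % remaining or degradation.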

Row | Structure (SMILES) | inhibition at 0.01 µM [1] [%] | inhibition at 0.5 µM [1] [%] | inhibition at 0.01 µM [2] [%] | inhibition at 0.5 µM [2] [%] | inhibition at 0.01 µM [3] [%] | inhibition at 0.5 µM [4] [%] | inhibition at 0.01 µM [5] [%] | inhibition at 0.5 µM [5] [%] | Degradation of substrate protein IRAK4 (substrate protein remaining %) (IRAK4)
1 | O=C1CCN(N2Cc3cc(CN4CCC(n5cc(NC(=O)c6coc(-c7ccnc(NCC(F)(F)F)c7)n6)c(C(F)F)n5)CC4)ccc3C2=O)C(=O)N1 [GT-05184, N-(3-(difluoromethyl)-1-(1-((2-(2,4-dioxotetrahydropyrimidin-1(2H)-yl)-1-oxoisoindolin-5-yl)methyl)piperidin-4-yl)-1H-pyrazol-4-yl)-2-(2-((2,2,2-trifluoroethyl)amino)pyridin-4-yl) oxazole-4-carboxamide] | 5 to 10 | 80 to 100 | 50 to 60 | 80 to 100 | 20 to 25 | 80 to 100 | 3 to 7 | 80 to 100 | 
2 | CC(C)(O)c1cc2nc(C3CCN(CC4CCN(c5ccc6c(c5)C(=O)N(N5CCC(=O)NC5=O)C6=O)CC4)CC3)oc2cc1NC(=O)c1cccc(C(F)(F)F)n1 [GT-05222, N-(2-(1-((1-(2-(2,4-dioxotetrahydropyrimidin-1(2H)-yl)-1,3-dioxoisoindolin-5-yl)piperidin-4-yl)methyl)piperidin-4-yl)-5-(2-hydroxypropan-2-yl)benzo[d]oxazol-6-yl)-6-(trifluoromethyl) picolinamide] | 30 to 40 | 25 to 30 |  |  | 30 to 40 | 30 to 40 |  |  | 
3 | O=C1CCN(N2C(=O)c3cccc(N4CCC(CN5CCC(n6cc(NC(=O)c7cnn8ccc(N9CCOCC9)nc78)c(C(F)F)n6)CC5)CC4)c3C2=O)C(=O)N1 [GT-05224, N-(3-(difluoromethyl)-1-(1-((1-(2-(2,4-dioxotetrahydropyrimidin-1(2H)-yl)-1,3-dioxoisoindolin-4-yl)piperidin-4-yl)methyl)piperidin-4-yl)-1H-pyrazol-4-yl)-5-morpholinopyrazolo[1,5-a]pyrimidine-3-carboxamide] | 15 to 20 | 60 to 80 | 50 to 60 | 80 to 100 | 20 to 25 | 30 to 40 | 0 to 3 | 80 to 100 | 
4 | O=C1CCN(N2C(=O)c3cc(F)c(N4CCN(C[C@H]5CC[C@H](n6cc(NC(=O)c7cnn8ccc(N9C[C@H]%10C[C@@H]9CO%10)nc78)c(C(F)F)n6)CC5)CC4)cc3C2=O)C(=O)N1 [GT-05239, 5-((1R,4R)-2-oxa-5-azabicyclo[2.2.1]heptan-5-yl)-N-(3-(difluoromethyl)-1-((1r,4R)-4-((4-(2-(2,4-dioxotetrahydropyrimidin-1(2H)-yl)-6-fluoro-1,3-dioxoisoindolin-5-yl)piperazin-1-yl)methyl)cyclohexyl)-1H-pyrazol-4-yl)pyrazolo[1,5-a]pyrimidine-3-carboxamide] |  |  |  |  | 30 to 40 | 20 to 25 |  |  | A (0%≤substrate protein remaining %≤80%)
5 | CC(C)(O)c1cc2nc(C3CCN(Cc4ccc5c(c4)CN(N4CCC(=O)NC4=O)C5=O)CC3)sc2cc1NC(=O)c1cccc(C(F)(F)F)n1 [GT-05747, N-(2-(1-((2-(2,4-dioxotetrahydropyrimidin-1(2H)-yl)-1-oxoisoindolin-5-yl)methyl)piperidin-4-yl)-5-(2-hydroxypropan-2-yl)benzo[d]thiazol-6-yl)-6-(trifluoromethyl) picolinamide] |  |  | 36 to 45 | 80 to 100 | 25 to 30 | 25 to 30 |  |  | 
6 | Cc1cc(-c2nc(C(=O)Nc3cc4oc(N5CCN(Cc6ccc7c(c6)CN(N6CCC(=O)NC6=O)C7=O)CC5)nc4nc3N3CC[C@@H](O)C3)co2)ccn1 [GT-05750, (R)—N-(2-(4-((2-(2,4-dioxotetrahydropyrimidin-1(2H)-yl)-1-oxoisoindolin-5-yl)methyl)piperazin-1-yl)-5-(3-hydroxypyrrolidin-1-yl)oxazolo[4,5-b]pyridin-6-yl)-2-(2-methylpyridin-4-yl) oxazole-4-carboxamide] |  |  | 36 to 45 | 80 to 100 | 25 to 30 | 20 to 25 |  |  | 
7 | O=C1CCN(N2C(=O)c3ccc(N4CCC(N5CCC(CN6CCC(n7cc(NC(=O)c8cnn9ccc(N%10CCOCC%10)nc89)c(C(F)F)n7)CC6)CC5)CC4)cc3C2=O)C(=O)N1 [GT-05760, N-(3-(difluoromethyl)-1-(1-((1′-(2-(2,4-dioxotetrahydropyrimidin-1(2H)-yl)-1,3-dioxoisoindolin-5-yl)-[1,4′-bipiperidin]-4-yl)methyl)piperidin-4-yl)-1H-pyrazol-4-yl)-5-morpholinopyrazolo[1,5-a]pyrimidine-3-carboxamide] | 25 to 30 | 30 to 40 | 50 to 60 | 80 to 100 | 25 to 30 | 30 to 40 |  |  | 
8 | Cc1cc(-c2nc(C(=O)Nc3cc4oc(N5CCN(Cc6ccc7c(c6)C(=O)N(N6CCC(=O)NC6=O)C7=O)CC5)nc4nc3N3CC[C@@H](O)C3)co2)ccn1 [GT-05803, (R)—N-(2-(4-((2-(2,4-dioxotetrahydropyrimidin-1(2H)-yl)-1,3-dioxoisoindolin-5-yl)methyl)piperazin-1-yl)-5-(3-hydroxypyrrolidin-1-yl)oxazolo[4,5-b]pyridin-6-yl)-2-(2-methylpyridin-4-yl) oxazole-4-carboxamide] | 30 to 40 | 25 to 30 | 50 to 60 | 60 to 80 | 25 to 30 | 20 to 25 |  |  | 
9 | CC(C)(O)c1cc2nc(C3CCN(CC4CCN(c5ccc6c(c5)C(=O)N(N5CCC(=O)NC5=O)C6=O)CC4)CC3)sc2cc1NC(=O)c1cccc(C(F)(F)F)n1 [GT-05819, N-(2-(1-((1-(2-(2,4-dioxotetrahydropyrimidin-1(2H)-yl)-1,3-dioxoisoindolin-5-yl)piperidin-4-yl)methyl)piperidin-4-yl)-5-(2-hydroxypropan-2-yl)benzo[d]thiazol-6-yl)-6-(trifluoromethyl) picolinamide] |  |  |  |  | 15 to 20 | 25 to 30 |  |  | A (0%≤substrate protein remaining %≤80%)
